Measurements: ChEMBL document CHEMBL4725429, “Discovery and Evaluation of Pyrazolo[3,4-d]pyridazinone as a Potent and Orally Active Irreversible BTK Inhibitor” (ACS Med Chem Lett, 2020)
Each block holds one molecule with its values, some of them ahead of it.

Columns and labels:
[1] = target: Tyrosine-protein kinase BTK (Homo sapiens, UniProt Q06187); assay: Inhibition of recombinant human His-tagged full length BTK expressed in baculovirus expression system using TK1 as substrate incubated for 60 mins by HTRF assay
[2] = Clearance in BALB/c mouse at 1 mg/kg, iv measured upto 24 hrs by LC-MS/MS analysis; conditions: in vivo
[3] = Volume of distribution at steady state in BALB/c mouse at 1 mg/kg, iv measured upto 24 hrs by LC-MS/MS analysis; format: ADME, organism-based; conditions: in vivo, read-out: Vdss
[4] = target: T1, Cytochrome P450 1A2 (Homo sapiens, UniProt P05177); assay: Inhibition of human liver microsome CYP1A2 using phenacetin as substrate preincubated for 10 mins followed by substrate and NADPH addition and measured after 10 mins by LC-MS/MS analysis
T1 sequence (P05177 whole entry): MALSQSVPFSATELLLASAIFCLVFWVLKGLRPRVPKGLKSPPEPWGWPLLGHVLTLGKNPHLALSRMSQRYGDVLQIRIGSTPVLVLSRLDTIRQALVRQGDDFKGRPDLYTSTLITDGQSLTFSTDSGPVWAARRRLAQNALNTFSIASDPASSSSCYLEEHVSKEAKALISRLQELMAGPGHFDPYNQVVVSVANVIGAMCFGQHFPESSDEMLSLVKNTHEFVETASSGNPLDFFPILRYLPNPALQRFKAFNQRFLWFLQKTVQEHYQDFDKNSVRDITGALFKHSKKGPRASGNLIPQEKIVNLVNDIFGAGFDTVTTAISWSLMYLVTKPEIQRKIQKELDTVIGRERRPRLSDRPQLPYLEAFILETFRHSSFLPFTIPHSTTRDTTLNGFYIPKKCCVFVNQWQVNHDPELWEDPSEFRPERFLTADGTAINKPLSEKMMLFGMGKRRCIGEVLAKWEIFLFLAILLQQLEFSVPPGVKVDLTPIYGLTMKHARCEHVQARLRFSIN

[5] = Volume of distribution at steady state in Sprague-Dawley rat at 2 mg/kg, iv measured upto 24 hrs by LC-MS/MS analysis; format: ADME, organism-based; conditions: in vivo, read-out: Vdss
[6] = tested on: Mus musculus; assay: Antiarthritic activity in po dosed collagen-induced arthritis mouse model assessed as clinical score administered for 14 days and measured for 21 days after dosing; format: functional, organism-based; conditions: dose mg/kg 3-10, time 14.0 day
[7] = AUC in BALB/c mouse 2 mg/kg, po measured upto 24 hrs by LC-MS/MS analysis; format: ADME, organism-based; design: route oral, dose 2 mg/kg, time <=24; conditions: in vivo
[8] = Cmax in BALB/c mouse 2 mg/kg, po measured upto 24 hrs by LC-MS/MS analysis; format: ADME, organism-based; design: route oral, dose 2 mg/kg, time <=24; conditions: in vivo
[9] = Cmax in Sprague-Dawley rat at 2 mg/kg, iv measured upto 24 hrs by LC-MS/MS analysis; format: ADME, organism-based; design: route intravenous, time <=24; conditions: in vivo
[10] = Oral bioavailability in Sprague-Dawley rat at 10 mg/kg measured upto 24 hrs by LC-MS/MS analysis; format: ADME, organism-based; conditions: in vivo
[11] = Protein binding in mouse plasma at 2 uM incubated for 4 hrs by LC-MS/MS analysis; format: ADME, cell-free; conditions: read-out: PPB (converted)
[12] = target: Cytochrome P450 3A4 (Homo sapiens, UniProt P08684); assay: Inhibition of human liver microsome CYP3A4 using midazolam as substrate preincubated for 10 mins followed by substrate and NADPH addition and measured after 10 mins by LC-MS/MS analysis
[13] = Protein binding in rat plasma at 2 uM incubated for 4 hrs by LC-MS/MS analysis; format: ADME, cell-free; conditions: read-out: PPB (converted)
[14] = Half life in BALB/c mouse at 1 mg/kg, iv measured upto 24 hrs by LC-MS/MS analysis; format: ADME, organism-based; conditions: in vivo
[15] = target: Cytochrome P450 2C9 (Homo sapiens, UniProt P11712); assay: Inhibition of human liver microsome CYP2C9 using diclofenac as substrate preincubated for 10 mins followed by substrate and NADPH addition and measured after 10 mins by LC-MS/MS analysis
[16] = target: Cytochrome P450 2C19 (Homo sapiens, UniProt P33261); assay: Inhibition of human liver microsome CYP2C19 using S-mephenytoin as substrate preincubated for 10 mins followed by substrate and NADPH addition and measured after 10 mins by LC-MS/MS analysis
[17] = Oral bioavailability in BALB/c mouse at 2 mg/kg measured upto 24 hrs by LC-MS/MS analysis; format: ADME, organism-based; conditions: in vivo
[18] = AUC (0 to last) in BALB/c mouse at 1 mg/kg, iv measured upto 24 hrs by LC-MS/MS analysis; format: ADME, organism-based; design: route intravenous, dose 1 mg/kg, time <=24; conditions: in vivo
[19] = Protein binding in human plasma at 2 uM incubated for 4 hrs by LC-MS/MS analysis; format: ADME, cell-free; conditions: read-out: PPB (converted)
[20] = Toxicity in mouse assessed as body weight loss at 3 and 10 mg/kg, po administered for 14 days and observed for 21 days; format: organism-based; conditions: in vivo, 336 h, dose 3-10 mg/kg, time 14 day
[21] = Toxicity in mouse assessed as drug tolerance at 3 and 10 mg/kg, po administered for 14 days and observed for 21 days; format: organism-based; conditions: in vivo, 336 h, dose 3-10 mg/kg, time 14 day
[22] = AUC (0 to last) in Sprague-Dawley rat at 2 mg/kg, iv measured upto 24 hrs by LC-MS/MS analysis; format: ADME, organism-based; design: route intravenous, dose 2 mg/kg, time <=24; conditions: in vivo
[23] = Half life in Sprague-Dawley rat at 2 mg/kg, iv measured upto 24 hrs by LC-MS/MS analysis; format: ADME, organism-based; conditions: in vivo
[24] = Clearance in Sprague-Dawley rat at 2 mg/kg, iv measured upto 24 hrs by LC-MS/MS analysis; conditions: in vivo
[25] = target: Cytochrome P450 2D6 (Homo sapiens, UniProt P10635); assay: Inhibition of human liver microsome CYP2D6 using dextromethorphan as substrate preincubated for 10 mins followed by substrate and NADPH addition and measured after 10 mins by LC-MS/MS analysis
[26] = AUC (0 to last) in Sprague-Dawley rat at 10 mg/kg, po measured upto 24 hrs by LC-MS/MS analysis; format: ADME, organism-based; design: route oral, dose 10 mg/kg, time <=24; conditions: in vivo

Tyrosine-protein kinase BTK, sequence (Q06187 whole entry): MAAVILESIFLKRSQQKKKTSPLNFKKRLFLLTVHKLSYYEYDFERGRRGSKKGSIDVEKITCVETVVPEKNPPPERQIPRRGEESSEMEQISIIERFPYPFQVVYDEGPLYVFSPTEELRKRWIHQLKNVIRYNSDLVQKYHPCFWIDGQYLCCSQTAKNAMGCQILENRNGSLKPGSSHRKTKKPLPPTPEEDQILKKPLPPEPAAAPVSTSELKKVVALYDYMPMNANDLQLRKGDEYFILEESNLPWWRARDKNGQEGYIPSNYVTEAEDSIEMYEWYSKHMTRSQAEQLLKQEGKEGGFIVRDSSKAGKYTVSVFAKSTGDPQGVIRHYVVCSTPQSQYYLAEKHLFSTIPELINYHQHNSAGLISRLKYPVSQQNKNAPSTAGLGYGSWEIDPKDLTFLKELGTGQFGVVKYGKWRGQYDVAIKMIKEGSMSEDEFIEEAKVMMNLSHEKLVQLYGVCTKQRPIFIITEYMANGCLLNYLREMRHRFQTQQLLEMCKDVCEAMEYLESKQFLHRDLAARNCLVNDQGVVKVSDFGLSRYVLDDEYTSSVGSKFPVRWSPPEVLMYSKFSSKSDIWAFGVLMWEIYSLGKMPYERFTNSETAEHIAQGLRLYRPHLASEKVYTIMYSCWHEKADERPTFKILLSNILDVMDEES
Cytochrome P450 2D6, sequence (P10635 whole entry): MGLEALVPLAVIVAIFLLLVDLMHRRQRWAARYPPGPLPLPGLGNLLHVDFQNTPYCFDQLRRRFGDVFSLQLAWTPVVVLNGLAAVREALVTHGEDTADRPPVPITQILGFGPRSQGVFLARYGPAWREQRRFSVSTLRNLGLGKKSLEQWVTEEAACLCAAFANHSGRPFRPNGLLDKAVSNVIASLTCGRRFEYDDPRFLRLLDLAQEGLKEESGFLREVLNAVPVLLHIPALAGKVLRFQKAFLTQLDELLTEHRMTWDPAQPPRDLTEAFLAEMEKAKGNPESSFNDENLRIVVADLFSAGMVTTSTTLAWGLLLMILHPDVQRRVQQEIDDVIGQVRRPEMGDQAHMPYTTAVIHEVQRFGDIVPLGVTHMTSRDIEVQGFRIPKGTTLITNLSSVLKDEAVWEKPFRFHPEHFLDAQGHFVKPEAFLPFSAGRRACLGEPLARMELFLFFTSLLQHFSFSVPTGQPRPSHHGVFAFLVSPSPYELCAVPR
Cytochrome P450 2C19, sequence (P33261 whole entry): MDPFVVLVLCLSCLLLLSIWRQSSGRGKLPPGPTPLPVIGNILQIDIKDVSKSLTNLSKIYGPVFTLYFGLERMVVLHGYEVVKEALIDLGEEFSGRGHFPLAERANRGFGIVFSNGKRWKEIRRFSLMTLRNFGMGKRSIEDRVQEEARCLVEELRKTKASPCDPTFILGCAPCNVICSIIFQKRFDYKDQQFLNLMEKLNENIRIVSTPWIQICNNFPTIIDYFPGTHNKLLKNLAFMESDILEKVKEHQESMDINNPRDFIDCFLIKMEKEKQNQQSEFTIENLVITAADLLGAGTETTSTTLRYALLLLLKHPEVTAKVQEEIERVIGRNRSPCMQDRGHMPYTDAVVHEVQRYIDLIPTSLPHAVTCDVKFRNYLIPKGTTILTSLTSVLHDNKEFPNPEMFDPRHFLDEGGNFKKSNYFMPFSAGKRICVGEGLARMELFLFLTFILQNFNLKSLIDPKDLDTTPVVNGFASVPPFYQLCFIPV
Cytochrome P450 2C9, sequence (P11712 whole entry): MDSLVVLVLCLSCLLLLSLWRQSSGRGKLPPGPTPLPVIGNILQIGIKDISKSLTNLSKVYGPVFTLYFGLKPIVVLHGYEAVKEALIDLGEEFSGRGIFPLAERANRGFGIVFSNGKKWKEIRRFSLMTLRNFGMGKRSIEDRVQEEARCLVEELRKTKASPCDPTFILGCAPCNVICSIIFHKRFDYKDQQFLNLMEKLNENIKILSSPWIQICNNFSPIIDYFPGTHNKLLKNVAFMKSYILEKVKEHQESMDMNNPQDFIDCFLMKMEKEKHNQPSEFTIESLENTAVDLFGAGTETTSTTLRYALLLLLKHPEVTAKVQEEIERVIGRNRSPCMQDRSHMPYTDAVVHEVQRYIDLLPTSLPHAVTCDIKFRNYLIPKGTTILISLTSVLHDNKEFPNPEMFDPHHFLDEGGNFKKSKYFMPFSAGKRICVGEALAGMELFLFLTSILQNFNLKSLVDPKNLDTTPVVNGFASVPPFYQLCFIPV
Cytochrome P450 3A4, sequence (P08684 whole entry): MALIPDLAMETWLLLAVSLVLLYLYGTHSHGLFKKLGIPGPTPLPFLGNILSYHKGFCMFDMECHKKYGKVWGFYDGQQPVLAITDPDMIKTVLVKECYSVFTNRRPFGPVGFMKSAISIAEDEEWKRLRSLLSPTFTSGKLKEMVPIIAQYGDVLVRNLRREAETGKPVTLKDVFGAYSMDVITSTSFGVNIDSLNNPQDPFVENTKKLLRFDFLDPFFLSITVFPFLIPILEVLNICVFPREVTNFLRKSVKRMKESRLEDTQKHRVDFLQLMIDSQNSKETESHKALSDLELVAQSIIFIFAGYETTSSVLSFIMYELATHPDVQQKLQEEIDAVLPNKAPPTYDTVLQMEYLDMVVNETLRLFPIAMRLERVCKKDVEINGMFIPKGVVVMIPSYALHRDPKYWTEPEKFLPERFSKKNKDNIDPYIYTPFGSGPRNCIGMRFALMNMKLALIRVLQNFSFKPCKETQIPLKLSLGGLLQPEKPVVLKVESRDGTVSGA

IC50 [1]: > 10000 nM
Compound: C=CC(=O)N1CCC[C@@H](Nc2ncnc3[nH]c(=O)c(-c4ccc(Oc5ccccc5)cc4)cc23)C1

IC50 [1]: 12 nM
Compound: CC#CC(=O)N1CCC[C@@H](n2nc(-c3ccc(Oc4ccccc4)cc3)c3c(N)n[nH]c(=O)c32)C1

clearance [2]: 31.3 mL/min/kg
Vd [3]: 0.82 L/kg
IC50 [4]: > 100000 nM
Vd [5]: 1.55 L/kg
AUC at 24 h [7]: 128 ng·h/mL
Cmax [8]: 252 nM
Cmax ([9]; Sprague-Dawley, read-out: Cmax): 466 ng/mL
bioavailability [10]: 23.7%
fraction unbound at 4 h, 2 µM [11]: 0.047
IC50 [12]: 37300 nM
fraction unbound at 4 h, 2 µM [13]: 0.003
half-life [14]: 25.2 min
IC50 [15]: 39600 nM
IC50 [16]: 43900 nM
bioavailability [17]: 11.2%
IC50 [1]: 2.1 nM
AUC(0-t) at 24 h [18]: 576 ng·h/mL
fraction unbound at 4 h, 2 µM [19]: 0.025
AUC(0-t) at 24 h ([22]; Sprague-Dawley): 604 ng·h/mL
half-life ([23]; Sprague-Dawley): 19.2 min
clearance [24]: 54.6 mL/min/kg
IC50 [25]: > 100000 nM
AUC(0-t) at 24 h [26]: 642 ng·h/mL
Compound: C=CC(=O)N1CCC[C@@H](n2nc(-c3ccc(Oc4ccccc4)cc3)c3c(N)n[nH]c(=O)c32)C1
Activity [6]: Dose-dependent effect
Activity [20]: Non-Toxic
Activity [21]: Non-Toxic

AUC at 24 h [7]: 161 ng·h/mL
Cmax [8]: 290 nM
IC50 [1]: 1.6 nM
Compound: C=CC(=O)N[C@H]1CC[C@@H](n2nc(-c3ccc(Oc4ccccc4)cc3)c3c(N)n[nH]c(=O)c32)CC1

Compound: C=CC(=O)N1CCC[C@@H](n2nc(-c3ccc(Oc4ccccc4)cc3)c3c(N)ncnc32)C1 [IBRUTINIB]
AUC at 24 h [7]: 21.4 ng·h/mL
Cmax [8]: 55.3 nM
Cmax ([9]; 24 h): 150 ng/mL
bioavailability [10]: 10.3%
fraction unbound at 4 h, 2 µM [11]: 0.038
fraction unbound at 4 h, 2 µM [13]: 0.022
half-life [14]: 20.4 min
bioavailability [17]: 1.8%
AUC(0-t) at 24 h [18]: 628 ng·h/mL
fraction unbound at 4 h, 2 µM [19]: 0.031
AUClast ([22]; 24 h): 643 ng·h/mL
t1/2 ([23]; 2 mg/kg, 24 h): 19.2 min
AUC(0-t) at 24 h [26]: 318 ng·h/mL

IC50 [1]: 1670 nM
Compound: C=CC(=O)N1CCC[C@@H](Nc2ncnc(N)c2-n2ncc3cc(Oc4ccccc4)ccc32)C1

IC50 [1]: 6.7 nM
Compound: C=CC(=O)N1CCCCC(n2nc(-c3ccc(Oc4ccccc4)cc3)c3c(N)n[nH]c(=O)c32)C1 (stereo not drawn)

IC50 [1]: 10 nM
Compound: C=CC(=O)NC1CCC[C@@H](n2nc(-c3ccc(Oc4ccccc4)cc3)c3c(N)n[nH]c(=O)c32)C1 (stereo partly drawn)

IC50 [1]: 13 nM
Compound: Nc1n[nH]c(=O)c2c1c(-c1ccc(Oc3ccccc3)cc1)nn2[C@@H]1CCCN(C(=O)/C=C/CN2CCOCC2)C1

IC50 [1]: 9.8 nM
Compound: C=CC(=O)N1CC(n2nc(-c3ccc(Oc4ccccc4)cc3)c3c(N)n[nH]c(=O)c32)C1

IC50 [1]: 35 nM
Compound: CN(C)C/C=C/C(=O)N(C)CCn1nc(-c2ccc(Oc3ccccc3)cc2)c2c(N)n[nH]c(=O)c21

IC50 [1]: > 1000 nM
Compound: C=CC(=O)N1CCC[C@@H](n2nc(-c3ccc(Oc4ccccc4)cc3)c3c(N)nn(CC(F)(F)F)c(=O)c32)C1

AUC at 24 h [7]: 49.5 ng·h/mL
Cmax [8]: 123 nM
IC50 [1]: 1.2 nM
Compound: C=CC(=O)N(C)CCn1nc(-c2ccc(Oc3ccccc3)cc2)c2c(N)n[nH]c(=O)c21

IC50 [1]: 4660 nM
Compound: C=CC(=O)N1CCCC(n2nc(-c3ccc(Oc4ccccc4)cc3)c3cc4c(N)noc4cc32)C1 (stereo not drawn)

IC50 [1]: 1240 nM
Compound: C=CC(=O)N1CCCC(n2nc(-c3ccc(Oc4ccccc4)cc3)c3cc4c(N)ncnc4cc32)C1 (stereo not drawn)

AUC at 24 h [7]: 68 ng·h/mL
Cmax [8]: 137 nM
IC50 [1]: 1.4 nM
Compound: C=CC(=O)N1CC[C@@H](n2nc(-c3ccc(Oc4ccccc4)cc3)c3c(N)n[nH]c(=O)c32)C1

IC50 [1]: 4.2 nM
Compound: C=CS(=O)(=O)N1CCC[C@@H](n2nc(-c3ccc(Oc4ccccc4)cc3)c3c(N)n[nH]c(=O)c32)C1

IC50 [1]: 22 nM
Compound: N#C/C(=C\C1CC1)C(=O)N1CCC[C@@H](n2nc(-c3ccc(Oc4ccccc4)cc3)c3c(N)n[nH]c(=O)c32)C1

IC50 [1]: 921 nM
Compound: C=CC(=O)N1CCC[C@@H](Nc2ncnc(N)c2C(=O)c2ccc(Oc3ccccc3)cc2)C1

IC50 [1]: 160 nM
Compound: C=CC(=O)N1CCC[C@@H](n2nc(-c3ccc(Oc4ccccc4)cc3)c3c(N)nn(C)c(=O)c32)C1

IC50 [1]: > 1000 nM
Compound: C=CC(=O)N1CCC[C@@H](n2nc(-c3ccc(Oc4ccccc4)cc3)c3c(N)nn(CC)c(=O)c32)C1

IC50 [1]: > 1000 nM
Compound: C=CC(=O)N1CCC[C@@H](n2nc(-c3ccc(Oc4ccccc4)cc3)c3c(N)noc(=O)c32)C1

IC50 [1]: 46 nM
Compound: C=CC(=O)N1CC2(CC(n3nc(-c4ccc(Oc5ccccc5)cc4)c4c(N)n[nH]c(=O)c43)C2)C1

IC50 [1]: 2.6 nM
Compound: CN(C)C/C=C/C(=O)N1CCC[C@@H](n2nc(-c3ccc(Oc4ccccc4)cc3)c3c(N)n[nH]c(=O)c32)C1

IC50 [1]: > 10000 nM
Compound: C=CC(=O)N1CCC[C@@H](Nc2ncnc3[nH]c4ccc(Oc5ccccc5)cc4c(=O)c23)C1
